Measured values as given in US4410516A, “1-N(αHydroxy-ω-aminoalkanoyl) derivatives of 5,3',4'-trideoxy- or 5,3', 4'-trideoxy-6'-N- methyl- or 5, 3', 4',6"-tetradeoxykannamyci B and production thereof” (Zaidan Hojin Biseibutsu Kagaku Kenkyu Kai, priority 1981, dated 1983).
Values after ≈ are worked out from the molar mass of the structure shown. Where two headings read alike, the source gives them in different places.

Tests used:
Format in all cases: cell-based
[1] = test system: Escherichia coli K-12 LA 290 R55; assay: Minimum inhibitory concentration, serial dilution on nutrient agar; settings: K12LA290R55, 18 h
[2] = test system: Escherichia coli K-12 R 388; assay: as above; settings: K12R388, 18 h
Escherichia coli K-12 = assay: as above
Escherichia coli W677 = assay: as above
[3] = test system: Pseudomonas maltophilia GN907; assay: as above; settings: Stenotrophomonas maltophilia, 37° C., 18 hours incubation
[4] = test system: Bacillus subtilis PCI 219; assay: as above; settings: PCI219, 37° C., 18 hours incubation
[5] = test system: Shigella flexneri 4b JS11811; assay: as above; settings: 4BJS11811, 37° C., 18 hours incubation
Source text: (§1) The minimum inhibitory concentration (mcg/ml) of 1-N-[(S)-4-amino-2-hydroxybutyryl]-5,3',4'-trideoxykanamycin B (abbreviated as AHB-trideoxyKMB), 1-N-[(RS)-3-amino-2-hydroxypropionyl]-5,3',4'-trideoxykanamycin B (abbreviated as AHP-trideoxy-KMB) and 1-N-[(S)-4-amino-2-hydroxybutyryl]-5,3',4',6"-tetradeoxykanamycin B (abbreviated as AHB-tetradeoxyKMB) of the formula (II) according to this invention as well as of the new compound 5,3',4',6"-tetradeoxykanamycin B (abbreviated as tetradeoxyKMB) of the formula (III) according to this invention against various microorganisms were determined according to serial dilution method on a nutrient agar medium at 37° C., the estimation being made after 18 hours incubation. For comparison purpose, the minimum inhibitory concentrations of habekacin were also determined in the same manner as stated above.
(§2) The minimum inhibitory concentrations (mcg/ml) of 1-N-[(S)-4-amino-2-hydroxybutyryl]-5,3',4'-trideoxy-6'-N-methylkanamycin B (abbreviated as AHB-trideoxyMKMB), 1-N-[(RS)-3-amino-2-hydroxypropionyl]-5,3',4'-trideoxy-6'-N-methylkanamycin B (abbreviated as AHP-trideoxyMKMB) and 1-N-[(S)-5-amino-2-hydroxyvaleryl]-5,3',4'-trideoxy-6'-N-methylkanamycin B (abbreviated as AHV-trideoxyMKMB) of the formula (IV) according to this invention as well as of the new compound 5,3',4'-trideoxy-6'-N-methylkanamycin B (abbreviated as trideoxyMKMB) of the formula (V) according to this invention against various microorganisms were determined according to serial dilution method on a nutrient agar medium at 37° C., the estimation being made after 18 hours incubation. For comparison purpose, the minimum inhibitory concentrations of 1-N-[(S)-4-amino-2-hydroxybutyryl]-3',4'-dideoxykanamycin B (ie. habekacin) were also determined in the same manner as stated above.

Shigella sonnei JS11746 = assay: as above; settings: 37° C., 18 hours incubation
Source text: as §1, §2

[6] = test system: Escherichia coli K-12 ML 1630; assay: as above; settings: K12ML1630, 37° C., 18 hours incubation
Source text: as §1, §2

[7] = test system: Escherichia coli K-12 C 600R/35; assay: as above; settings: K12C600R/35, 37° C., 18 hours incubation
Source text: as §1, §2

[8] = test system: Escherichia coli K-12 J5R 11-2; assay: as above; settings: K12J5R112, 37° C., 18 hours incubation
Source text: as §1, §2

[9] = test system: Pseudomonas aeruginosa TI-13; assay: as above; settings: TI13, 18 h
Bacillus anthracis = assay: microbe, parasite or virus in culture; settings: 18 h
[10] = test system: Pseudomonas aeruginosa No. 12; assay: Minimum inhibitory concentration, serial dilution on nutrient agar
[11] = test system: Escherichia coli K-12 ML 1629; assay: as above
[12] = test system: Micrococcus flavus FDA 16; assay: as above
Serratia marcescens = assay: as above; settings: 37° C., 18 hours incubation
[13] = test system: Bacillus cereus ATCC 10702; assay: as above
[14] = test system: Mycobacterium smegmatis ATCC 607; assay: as above; settings: Mycolicibacterium smegmatis, ATCC607; nutrient agar, 37° C., 18 hours incubation; read-out: MIC
[15] = test system: Pseudomonas aeruginosa H11; assay: as above
Sarcina lutea PCI 1001 = assay: as above; settings: Micrococcus luteus
[16] = test system: Staphylococcus aureus AP01; assay: as above; settings: 37° C., 18 hours incubation
Escherichia coli NIHJ = assay: as above
Escherichia coli JR255 = assay: as above
[17] = test system: Pseudomonas aeruginosa 99; assay: as above
[18] = test system: Escherichia coli JR66/W677; assay: as above
[19] = test system: Pseudomonas aeruginosa PST1; assay: as above; settings: PST1, nutrient agar, 37° C., 18 hours incubation, read-out: MIC
[20] = test system: Klebsiella pneumoniae 22 #3038; assay: as above
[21] = test system: Salmonella enteritidis 1891; assay: as above; settings: Salmonella enterica
[22] = nutrient agar, 37° C., 18 hours incubation, read-out: MIC

Row | SMILES | MIC [1] [µg/mL] | MIC [2] [µg/mL] | MIC [3] [µg/mL] | MIC [4] [µg/mL] | MIC [5] [µg/mL] | MIC (Shigella sonnei JS11746) [µg/mL] | MIC [6] [µg/mL] | MIC [7] [µg/mL] | MIC [8] [µg/mL] | MIC [9] [µg/mL] | MIC (Bacillus anthracis) [µg/mL] | MIC (Serratia marcescens) [µg/mL] | MIC [14] [µg/mL] | MIC [16] [µg/mL] | MIC [19] [µg/mL] | also measured
1 | CNC[C@@H]1CC[C@@H](N)[C@@H](O[C@H]2C[C@@H](O[C@H]3O[C@H](CO)[C@@H](O)[C@H](N)[C@H]3O)[C@H](NC(=O)[C@@H](O)CCCN)C[C@@H]2N)O1 [AHV-trideoxyMKMB, 1-N-[(S)-5-amino-2-hydroxyvaleryl]-5,3',4'-trideoxy-6'-N-methylkanamycin B] | 3.13 (≈ 5.54 µM) | 1.56 (≈ 2.76 µM) | > 100 | < 0.2 | 1.56 (≈ 2.76 µM) | 6.25 (≈ 11.1 µM) | 3.13 (≈ 5.54 µM) | 1.56 (≈ 2.76 µM) | 3.13 (≈ 5.54 µM) | 1.56 (≈ 2.76 µM) | < 0.2 | 12.5 (≈ 22.1 µM) | 0.39 (≈ 0.691 µM) | 0.39 (≈ 0.691 µM) | 12.5 (≈ 22.1 µM) | MIC (Escherichia coli K-12; K12, 18 h): 1.56 µg/mL (≈ 2.76 µM); MIC (Escherichia coli W677; W677, 18 h): 1.56 µg/mL (≈ 2.76 µM); MIC ([10]; NO.12, 18 h): 3.13 µg/mL (≈ 5.54 µM); MIC ([11]; K12ML1629, 18 h): 3.13 µg/mL (≈ 5.54 µM); MIC ([12]; FDA16, 18 h): 3.13 µg/mL (≈ 5.54 µM); MIC ([13]; ATCC10702, 18 h): 1.56 µg/mL (≈ 2.76 µM); MIC ([15]; H11, 18 h): 6.25 µg/mL (≈ 11.1 µM); MIC (Sarcina lutea PCI 1001; PCI1001, 18 h): 1.56 µg/mL (≈ 2.76 µM); MIC (Escherichia coli NIHJ; 18 h): 1.56 µg/mL (≈ 2.76 µM); MIC (Escherichia coli JR255; JR255, 18 h): 1.56 µg/mL (≈ 2.76 µM); MIC ([17]; Pseudomonas aeruginosa, 99, 18 h): 6.25 µg/mL (≈ 11.1 µM); MIC ([18]; JR66/W677, 18 h): 3.13 µg/mL (≈ 5.54 µM); MIC ([20]; 18 h): 3.13 µg/mL (≈ 5.54 µM); MIC ([21]; 18 h): 3.13 µg/mL (≈ 5.54 µM)
2 | C[C@H]1O[C@H](O[C@@H]2C[C@H](O[C@H]3O[C@H](CN)CC[C@H]3N)[C@@H](N)C[C@H]2N)[C@H](O)[C@@H](N)[C@@H]1O [TetradeoxyKMB, 5,3',4',6"-tetradeoxykanamycin B] | > 100 | 3.13 (≈ 7.46 µM) | > 100 | < 0.2 | 25 (≈ 59.6 µM) | 12.5 (≈ 29.8 µM) | 12.5 (≈ 29.8 µM) | 6.25 (≈ 14.9 µM) | 6.25 (≈ 14.9 µM) | 12.5 (≈ 29.8 µM) | 0.39 (≈ 0.93 µM) | 100 (≈ 238 µM) | 0.78 (≈ 1.86 µM) | 6.25 (≈ 14.9 µM) | > 100 | MIC (Escherichia coli K-12; K12, nutrient agar, 37° C., 18 hours incubation, read-out: MIC): 25 µg/mL (≈ 59.6 µM); MIC (Escherichia coli W677; W677, nutrient agar, 37° C., 18 hours incubation, read-out: MIC): 6.25 µg/mL (≈ 14.9 µM); MIC ([10]; NO.12, nutrient agar, 37° C., 18 hours incubation, read-out: MIC): 25 µg/mL (≈ 59.6 µM); MIC ([11]; K12ML1629, nutrient agar, 37° C., 18 hours incubation, read-out: MIC): 6.25 µg/mL (≈ 14.9 µM); MIC ([12]; FDA16, nutrient agar, 37° C., 18 hours incubation, read-out: MIC): 50 µg/mL (≈ 119 µM); MIC ([13]; ATCC10702, nutrient agar, 37° C., 18 hours incubation, read-out: MIC): 3.13 µg/mL (≈ 7.46 µM); MIC ([15]; H11, nutrient agar, 37° C., 18 hours incubation, read-out: MIC): 25 µg/mL (≈ 59.6 µM); MIC (Sarcina lutea PCI 1001; PCI1001, nutrient agar, 37° C., 18 hours incubation, read-out: MIC): 50 µg/mL (≈ 119 µM); MIC (Escherichia coli NIHJ; [22]): 6.25 µg/mL (≈ 14.9 µM); MIC (Escherichia coli JR255; JR255, nutrient agar, 37° C., 18 hours incubation, read-out: MIC): 25 µg/mL (≈ 59.6 µM); MIC ([17]; Pseudomonas aeruginosa, 99, nutrient agar, 37° C., 18 hours incubation, read-out: MIC): 25 µg/mL (≈ 59.6 µM); MIC ([18]; JR66/W677, nutrient agar, 37° C., 18 hours incubation, read-out: MIC): > 100 µg/mL; MIC [20, 22]: 100 µg/mL (≈ 238 µM); MIC [21, 22]: 25 µg/mL (≈ 59.6 µM)
